The results in this text go back to paper PMC5218480 (PLoS ONE, 2017).

This experiment concerns MV-4-11 cells. Description: Gene expression microarray analysis (Affymetrix PrimeView) and GSEA. It counts as cell-based, human. Also on record: RFU PODN (11730768_x_at) / Fold change /veh PODN (11730768_x_at) / RFU LINC00158 (11744669_a_at) / Fold change /veh LINC00158 (11744669_a_at) / RFU DUSP10 (11751237_a_at) / Fold change /veh DUSP10 (11751237_a_at) / RFU ID3 (11757404_x_at) / Fold change /veh ID3 (11757404_x_at) / RFU PLEKHG5 (11737974_s_at) / Fold change /veh PLEKHG5 (11737974_s_at) / RFU LRRC4B (11730491_at) / Fold change /veh LRRC4B (11730491_at) / RFU GIMAP4 (11747438_a_at) / Fold change /veh GIMAP4 (11747438_a_at) / RFU KRT8 (11758183_x_at) / Fold change /veh KRT8 (11758183_x_at) / RFU CNN1 (11734310_a_at) / Fold change /veh CNN1 (11734310_a_at) / RFU VPS37D (11726825_at) / Fold change /veh VPS37D (11726825_at) / RFU C10orf10 (11716522_x_at) / Fold change /veh C10orf10 (11716522_x_at) / RFU KIR2DL2 /// KIR2DL4 /// KIR2DL5A /// KIR2DL5B /// KIR2DS1 /// KIR2DS2 /// KIR2DS3 /// KIR2DS4 /// KIR3DL3 /// KIR3DL3 /// KIR3DS1 (11738374_at) / Fold change /veh KIR2DL2 /// KIR2DL4 /// KIR2DL5A /// KIR2DL5B /// KIR2DS1 /// KIR2DS2 /// KIR2DS3 /// KIR2DS4 /// KIR3DL3 /// KIR3DL3 /// KIR3DS1 (11738374_at) / RFU C1QL1 (11718748_at) / Fold change /veh C1QL1 (11718748_at) / RFU TMPRSS4 (11747572_a_at) / Fold change /veh TMPRSS4 (11747572_a_at) / RFU HAMP (11756126_x_at) / Fold change /veh HAMP (11756126_x_at) / RFU RNFT2 (11725882_a_at) / Fold change /veh RNFT2 (11725882_a_at) / RFU NR4A2 (11747474_a_at) / Fold change /veh NR4A2 (11747474_a_at) / RFU ABCC12 (11746883_a_at) / Fold change /veh ABCC12 (11746883_a_at) / RFU TMEM136 (11760407_x_at) / Fold change /veh TMEM136 (11760407_x_at) / RFU CLDN22 /// WWC2 (11732394_at) / Fold change /veh CLDN22 /// WWC2 (11732394_at) / RFU HLA-DPB1 (11760878_x_at) / Fold change /veh HLA-DPB1 (11760878_x_at) / RFU SPINT1 (11716480_a_at) / Fold change /veh SPINT1 (11716480_a_at) / RFU GAP43 (11754022_s_at) / Fold change /veh GAP43 (11754022_s_at) / RFU A4GNT (11735810_at) / Fold change /veh A4GNT (11735810_at) / RFU PRB3 (11715151_x_at) / Fold change /veh PRB3 (11715151_x_at) / RFU TUBB4B (11761932_at) / Fold change /veh TUBB4B (11761932_at) / RFU CAPN14 (11732068_a_at) / Fold change /veh CAPN14 (11732068_a_at) / RFU TMCC2 (11721928_a_at) / Fold change /veh TMCC2 (11721928_a_at) / RFU IRGQ (11745062_a_at) / Fold change /veh IRGQ (11745062_a_at) / RFU FAM174B (11720279_a_at) / Fold change /veh FAM174B (11720279_a_at) / RFU TMPRSS4 (11748680_a_at) / Fold change /veh TMPRSS4 (11748680_a_at) / RFU FAM212B (11763350_a_at) / Fold change /veh FAM212B (11763350_a_at) / RFU PLEKHG5 (11743358_a_at) / Fold change /veh PLEKHG5 (11743358_a_at) / RFU ZSCAN30 (11745921_a_at) / Fold change /veh ZSCAN30 (11745921_a_at) / RFU CMKLR1 (11741424_a_at) / Fold change /veh CMKLR1 (11741424_a_at) / RFU LOC101060620 /// MAPK8IP1 (11723275_at) / Fold change /veh LOC101060620 /// MAPK8IP1 (11723275_at) / RFU SPTSSB (11747773_x_at) / Fold change /veh SPTSSB (11747773_x_at) / RFU PRSS12 (11739890_at) / Fold change /veh PRSS12 (11739890_at) / RFU BIN1 (11741810_x_at) / Fold change /veh BIN1 (11741810_x_at) / RFU WNT11 (11732464_a_at) / Fold change /veh WNT11 (11732464_a_at) / RFU C10orf10 (11716521_a_at) / Fold change /veh C10orf10 (11716521_a_at) / RFU C5orf56 (11738089_at) / Fold change /veh C5orf56 (11738089_at) / RFU CYB561 (11721691_x_at) / Fold change /veh CYB561 (11721691_x_at) / RFU ANKRD19P (11752326_a_at) / Fold change /veh ANKRD19P (11752326_a_at) / RFU OR2T12 /// OR2T33 /// OR2T8 (11738714_s_at) / Fold change /veh OR2T12 /// OR2T33 /// OR2T8 (11738714_s_at) / RFU VCAN (11748164_a_at) / Fold change /veh VCAN (11748164_a_at) / RFU JSRP1 (11732532_at) / Fold change /veh JSRP1 (11732532_at) / RFU KRTAP10-11 (11738290_x_at) / Fold change /veh KRTAP10-11 (11738290_x_at) / RFU MYO3A (11730013_a_at) / Fold change /veh MYO3A (11730013_a_at) / RFU EBF3 (11725865_a_at) / Fold change /veh EBF3 (11725865_a_at) / RFU CAMK2N1 (11719241_x_at) / Fold change /veh CAMK2N1 (11719241_x_at) / RFU C5orf56 (11738088_a_at) / Fold change /veh C5orf56 (11738088_a_at) / RFU OLFML3 (11715873_a_at) / Fold change /veh OLFML3 (11715873_a_at) / RFU LOC100653217 /// NTM (11731650_a_at) / Fold change /veh LOC100653217 /// NTM (11731650_a_at) / RFU MAPK11 (11762145_a_at) / Fold change /veh MAPK11 (11762145_a_at) / RFU FIZ1 (11724087_x_at) / Fold change /veh FIZ1 (11724087_x_at) / RFU OASL (11726364_x_at) / Fold change /veh OASL (11726364_x_at) / RFU SOX15 (11748057_x_at) / Fold change /veh SOX15 (11748057_x_at) / RFU CD79A (11719716_a_at) / Fold change /veh CD79A (11719716_a_at) / RFU HIST1H1D (11736915_at) / Fold change /veh HIST1H1D (11736915_at) / RFU CASKIN2 (11723855_a_at) / Fold change /veh CASKIN2 (11723855_a_at) / RFU LOC730098 (11760151_x_at) / Fold change /veh LOC730098 (11760151_x_at) / RFU OR4N2 (11742367_at) / Fold change /veh OR4N2 (11742367_at) / RFU PRRT2 (11749266_a_at) / Fold change /veh PRRT2 (11749266_a_at) / RFU SNX32 (11753110_a_at) / Fold change /veh SNX32 (11753110_a_at) / RFU CDHR5 (11726645_a_at) / Fold change /veh CDHR5 (11726645_a_at) / RFU RCAN1 (11760418_a_at) / Fold change /veh RCAN1 (11760418_a_at) / RFU FAM167A (11723789_a_at) / Fold change /veh FAM167A (11723789_a_at) / RFU FAM26E (11764081_at) / Fold change /veh FAM26E (11764081_at) / RFU ISYNA1 (11749810_s_at) / Fold change /veh ISYNA1 (11749810_s_at) / RFU ACY1 (11761880_at) / Fold change /veh ACY1 (11761880_at) / RFU 11764098_at / Fold change /veh 11764098_at / RFU SAMD14 (11745864_x_at) / Fold change /veh SAMD14 (11745864_x_at) / RFU NPB (11741838_a_at) / Fold change /veh NPB (11741838_a_at) / RFU TMPRSS6 (11731388_a_at) / Fold change /veh TMPRSS6 (11731388_a_at) / RFU KRTAP10-2 (11738614_at) / Fold change /veh KRTAP10-2 (11738614_at) / RFU ARHGAP8 /// PRR5-ARHGAP8 (11727945_x_at) / Fold change /veh ARHGAP8 /// PRR5-ARHGAP8 (11727945_x_at) / RFU KRTAP5-7 /// NADSYN1 (11734609_at) / Fold change /veh KRTAP5-7 /// NADSYN1 (11734609_at) / RFU RASL12 (11751679_a_at) / Fold change /veh RASL12 (11751679_a_at) / RFU CDKN2B (11736163_a_at) / Fold change /veh CDKN2B (11736163_a_at) / RFU PRF1 (11729649_at) / Fold change /veh PRF1 (11729649_at) / RFU, ZNF638 /// ZNF638-IT1 / Fold change vs veh, ZNF638 /// ZNF638-IT1 / RFU, PANK3 / Fold change vs veh, PANK3 / RFU, SH3YL1 / Fold change vs veh, SH3YL1 / RFU, ZEB2 / Fold change vs veh, ZEB2 / RFU, NRIP1 / Fold change vs veh, NRIP1 / RFU, PTTG1IP / Fold change vs veh, PTTG1IP / RFU, CAPN2 / Fold change vs veh, CAPN2 / RFU, MED14 / Fold change vs veh, MED14 / RFU, SNORA58 / Fold change vs veh, SNORA58 / RFU, C1orf63 / Fold change vs veh, C1orf63 / RFU, LRRFIP1 / Fold change vs veh, LRRFIP1 / RFU, NDUFAF7 / Fold change vs veh, NDUFAF7 / RFU, SLC12A2 / Fold change vs veh, SLC12A2 / RFU, IBTK / Fold change vs veh, IBTK / RFU, ESF1 / Fold change vs veh, ESF1 / Fold change vs veh, TMEM50B / RFU, TAOK1 / Fold change vs veh, TAOK1 / RFU, ACBD3 / Fold change vs veh, ACBD3 / RFU, TMA16 / Fold change vs veh, TMA16 / RFU, RWDD3 / Fold change vs veh, RWDD3 / RFU, BCAT1 / Fold change vs veh, BCAT1 / RFU, EDEM3 / Fold change vs veh, EDEM3 / RFU, TMEM33 / Fold change vs veh, TMEM33 / RFU, WDR75 / Fold change vs veh, WDR75 / RFU, AHCTF1 / Fold change vs veh, AHCTF1 / RFU, TFRC / Fold change vs veh, TFRC / RFU, ZDHHC17 / Fold change vs veh, ZDHHC17 / RFU, NOM1 / Fold change vs veh, NOM1 / RFU, ARL8B / Fold change vs veh, ARL8B / RFU, ZBTB11 / Fold change vs veh, ZBTB11 / RFU, TAMM41 / Fold change vs veh, TAMM41 / RFU, KIAA1704 /// LOC100996395 / Fold change vs veh, KIAA1704 /// LOC100996395 / RFU, ING1 / Fold change vs veh, ING1 / RFU, TRMT61B / Fold change vs veh, TRMT61B / RFU, FUBP3 / Fold change vs veh, FUBP3 / RFU, TP53 / Fold change vs veh, TP53 / RFU, TNKS2 / Fold change vs veh, TNKS2 / RFU, ZFP14 / Fold change vs veh, ZFP14 / RFU, ACTR2 / Fold change vs veh, ACTR2 / RFU, PPP3R1 / Fold change vs veh, PPP3R1 / RFU, PIK3R1 / Fold change vs veh, PIK3R1 / RFU, HNRNPA1 / Fold change vs veh, HNRNPA1 / RFU, RNF170 / Fold change vs veh, RNF170 / RFU, ZNF28 / Fold change vs veh, ZNF28 / RFU, RNGTT / Fold change vs veh, RNGTT / RFU, OGT / Fold change vs veh, OGT / RFU, BRD1 / Fold change vs veh, BRD1 / RFU, MARS / Fold change vs veh, MARS / RFU, ZNF655 / Fold change vs veh, ZNF655 / RFU, FAHD1 / Fold change vs veh, FAHD1 / RFU, BDP1 / Fold change vs veh, BDP1 / RFU, LRRCC1 / Fold change vs veh, LRRCC1 / RFU, ARID1A / Fold change vs veh, ARID1A / RFU, ZNF146 / Fold change vs veh, ZNF146 / RFU, ZNF330 / Fold change vs veh, ZNF330 / RFU, GPN3 / Fold change vs veh, GPN3 / RFU, C9orf123 / Fold change vs veh, C9orf123 / RFU, N4BP2L2 / Fold change vs veh, N4BP2L2 / RFU, ARFIP1 / Fold change vs veh, ARFIP1 / RFU, FAM179B / Fold change vs veh, FAM179B / RFU, BCL10 / Fold change vs veh, BCL10 / RFU, UHRF1BP1L / Fold change vs veh, UHRF1BP1L / RFU, BET1 / Fold change vs veh, BET1 / RFU, CNOT2 / Fold change vs veh, CNOT2 / RFU, ZNF268 / Fold change vs veh, ZNF268 / Fold change vs veh, ZNF507 / RFU, DGCR2 / Fold change vs veh, DGCR2 / RFU, WDSUB1 / Fold change vs veh, WDSUB1 / Fold change vs veh, HSP90B1 /// MIR3652 / RFU, ADSS / Fold change vs veh, ADSS / RFU, GK / Fold change vs veh, GK / RFU, ZNF148 / Fold change vs veh, ZNF148 / RFU, TAF9 / Fold change vs veh, TAF9 / RFU, SLC1A5 / Fold change vs veh, SLC1A5 / RFU, SLMO2 / Fold change vs veh, SLMO2 / RFU, ABCC4 / Fold change vs veh, ABCC4 / RFU, LOC101060439 /// RAP1B / Fold change vs veh, LOC101060439 /// RAP1B / RFU, RFX7 / Fold change vs veh, RFX7 / RFU, GTPBP10 / Fold change vs veh, GTPBP10 / RFU, CNEP1R1 / Fold change vs veh, CNEP1R1 / RFU, BIVM-ERCC5 /// ERCC5 / Fold change vs veh, BIVM-ERCC5 /// ERCC5 / RFU, ILF3 / Fold change vs veh, ILF3 / RFU 11762660_at / Fold change /veh 11762660_at / RFU VCAN (11757783_s_at) / Fold change /veh VCAN (11757783_s_at) / RFU DDX43 (11728927_at) / Fold change /veh DDX43 (11728927_at) / RFU KRT8 (11758188_x_at) / Fold change /veh KRT8 (11758188_x_at) / RFU NKD1 (11759106_at) / Fold change /veh NKD1 (11759106_at) / RFU SRD5A1 (11742802_a_at) / Fold change /veh SRD5A1 (11742802_a_at) / RFU TPSAB1 /// TPSB2 (11721975_s_at) / Fold change /veh TPSAB1 /// TPSB2 (11721975_s_at) / RFU GSTM3 (11746129_a_at) / Fold change /veh GSTM3 (11746129_a_at) / RFU IL23R (11737362_x_at) / Fold change /veh IL23R (11737362_x_at) / RFU TMEM51 (11727254_a_at) / Fold change /veh TMEM51 (11727254_a_at) / RFU PIWIL2 (11732686_x_at) / Fold change /veh PIWIL2 (11732686_x_at) / RFU ORM1 (11744905_x_at) / Fold change /veh ORM1 (11744905_x_at) / RFU CCDC152 (11743942_at) / Fold change /veh CCDC152 (11743942_at) / RFU ECM1 (11717891_a_at) / Fold change /veh ECM1 (11717891_a_at) / RFU IL23R (11748794_a_at) / Fold change /veh IL23R (11748794_a_at) / RFU TNFAIP8L3 (11732012_x_at) / Fold change /veh TNFAIP8L3 (11732012_x_at) / RFU MBOAT4 (11741988_at) / Fold change /veh MBOAT4 (11741988_at) / RFU 11764193_at / Fold change /veh 11764193_at / RFU TMEM53 (11763286_at) / Fold change /veh TMEM53 (11763286_at) / RFU MAGEB2 (11727129_at) / Fold change /veh MAGEB2 (11727129_at) / RFU TMEM200A (11744735_a_at) / Fold change /veh TMEM200A (11744735_a_at) / RFU CCDC152 (11751479_a_at) / Fold change /veh CCDC152 (11751479_a_at) / RFU FAM211A (11726209_a_at) / Fold change /veh FAM211A (11726209_a_at) / RFU RGS16 (11746705_a_at) / Fold change /veh RGS16 (11746705_a_at) / RFU VCAN (11755009_s_at) / Fold change /veh VCAN (11755009_s_at) / RFU RHOB (11743442_s_at) / Fold change /veh RHOB (11743442_s_at) / RFU RGS16 (11720943_a_at) / Fold change /veh RGS16 (11720943_a_at) / RFU RGS16 (11720944_at) / Fold change /veh RGS16 (11720944_at) / RFU, VPS4B / Fold change vs veh, VPS4B / RFU, CREB1 / Fold change vs veh, CREB1 / RFU, DNAJC13 / Fold change vs veh, DNAJC13 / RFU, GNAQ / Fold change vs veh, GNAQ / RFU, CDK5R1 / Fold change vs veh, CDK5R1 / RFU, ZRANB3 / Fold change vs veh, ZRANB3 / RFU, CUL4A / Fold change vs veh, CUL4A / RFU, CCNY / Fold change vs veh, CCNY / RFU, UFL1 / Fold change vs veh, UFL1 / RFU, COG3 / Fold change vs veh, COG3 / RFU, DIAPH2 / Fold change vs veh, DIAPH2 / RFU, SKA2 / Fold change vs veh, SKA2 / RFU, AFF3 / Fold change vs veh, AFF3 / RFU, LMF1 / Fold change vs veh, LMF1 / RFU, IPO11 / Fold change vs veh, IPO11 / RFU, DFFB / Fold change vs veh, DFFB / RFU, FOXP1 / Fold change vs veh, FOXP1 / RFU, CARD8 / Fold change vs veh, CARD8 / RFU, STRN3 / Fold change vs veh, STRN3 / RFU, ADK / Fold change vs veh, ADK / RFU, RASSF2 / Fold change vs veh, RASSF2 / RFU, WIPF1 / Fold change vs veh, WIPF1 / RFU, LARP1B / Fold change vs veh, LARP1B / RFU, RASA1 / Fold change vs veh, RASA1 / RFU, RB1 / Fold change vs veh, RB1 / RFU, PPFIA1 / Fold change vs veh, PPFIA1 / RFU, MAT2A / Fold change vs veh, MAT2A / RFU, CCT5 / Fold change vs veh, CCT5 / RFU, WDR92 / Fold change vs veh, WDR92 / RFU, CUX1 / Fold change vs veh, CUX1 / RFU, TTC7A / Fold change vs veh, TTC7A / RFU, TMEM135 / Fold change vs veh, TMEM135 / RFU, DEPTOR / Fold change vs veh, DEPTOR / RFU, CPM / Fold change vs veh, CPM / RFU, DNAJB6 / Fold change vs veh, DNAJB6 / RFU, CACNA2D3 / Fold change vs veh, CACNA2D3 / RFU, DTX4 / Fold change vs veh, DTX4 / RFU, TFCP2 / Fold change vs veh, TFCP2 / RFU, GMCL1 /// GMCL1P1 / Fold change vs veh, GMCL1 /// GMCL1P1 / RFU, AEBP2 / Fold change vs veh, AEBP2 / RFU, SNHG1 /// SNORD22 /// SNORD25 /// SNORD26 /// SNORD27 /// SNORD28 /// SNORD29 /// SNORD31 / Fold change vs veh, SNHG1 /// SNORD22 /// SNORD25 /// SNORD26 /// SNORD27 /// SNORD28 /// SNORD29 /// SNORD31 / Fold change (Aza/veh), C12orf56 (ProbeSet 11735607_a_at) / Fold change (ACY-1035/veh), C12orf56 (ProbeSet 11735607_a_at) / Fold change (Aza/veh), FGFR1OP (ProbeSet 11751329_s_at) / Fold change (ACY-1035/veh), FGFR1OP (ProbeSet 11751329_s_at) / Fold change (Aza/veh), VPS36 (ProbeSet 11739960_a_at) / Fold change (ACY-1035/veh), VPS36 (ProbeSet 11739960_a_at) / RFU SYPL1 (11715823_x_at) / Fold change /veh SYPL1 (11715823_x_at) / RFU IGFBP7 (11715501_s_at) / Fold change /veh IGFBP7 (11715501_s_at) / RFU REEP3 (11722064_at) / Fold change /veh REEP3 (11722064_at) / RFU IGLL1 (11728026_x_at) / Fold change /veh IGLL1 (11728026_x_at): dose or concentration left out as unconfirmed. As to conditions: ProbeSet 11719493_s_at; LIST B.

SMILES strings stand for the structures.

Take `Nc1ncn([C@@H]2O[C@H](CO)[C@@H](O)[C@H]2O)c(=O)n1` [azacitidine]: the “Fold change vs veh, TAF9” value came out at 1.00.
